# Measurements as given in US11325938B2, “CD73 inhibitors” (ORIC Pharmaceuticals, Inc., priority 2018, dated 2022).
# Target: CD73 (Homo sapiens (Human), UniProt P21589)
# Assay: Biochemical assay: inhibition of CD73 activity (AMP hydrolysis, Malachite Green readout)
# Conditions: CD73 0.3208 nM, AMP 15 μM, 25 mM Tris-HCl pH 7.4, RT, absorbance 620 nm
# Outline: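 Human CD73 (320 pM final) preincubated 15 min at RT with compounds (10-point ½-log titration from 100 μM, duplicates) in 25 mM Tris-HCl pH 7.4, 5 mM MgCl2, 0.01% Brij-35, 0.01% BSA. 15 μM AMP added, 10 min at RT; released phosphate read by Malachite Green absorbance; IC50 determined.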
# Chain of CD73 (P21589 27-574): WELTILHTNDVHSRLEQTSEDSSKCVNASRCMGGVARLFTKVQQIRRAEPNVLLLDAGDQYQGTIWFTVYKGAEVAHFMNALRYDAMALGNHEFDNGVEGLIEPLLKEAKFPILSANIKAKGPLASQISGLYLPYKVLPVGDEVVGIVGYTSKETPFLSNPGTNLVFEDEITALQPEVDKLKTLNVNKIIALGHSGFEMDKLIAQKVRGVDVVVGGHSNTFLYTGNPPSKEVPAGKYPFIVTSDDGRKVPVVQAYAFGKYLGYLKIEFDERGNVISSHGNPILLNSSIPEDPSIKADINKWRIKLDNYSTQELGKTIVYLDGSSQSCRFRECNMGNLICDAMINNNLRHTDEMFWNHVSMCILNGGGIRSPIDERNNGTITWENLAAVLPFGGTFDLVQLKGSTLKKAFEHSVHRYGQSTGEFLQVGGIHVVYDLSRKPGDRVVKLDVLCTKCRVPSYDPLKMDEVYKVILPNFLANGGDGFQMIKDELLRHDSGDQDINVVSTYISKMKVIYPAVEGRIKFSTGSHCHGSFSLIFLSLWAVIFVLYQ
row,IC50 [nM],Structure (SMILES)
1,≤ 100,"O=P(O)(O)[C@@H](Cc1ccccc1)S(=O)(=O)C[C@H]1O[C@@H](n2ncc3c(NC4CCCC4)nc(Cl)nc32)[C@H](O)[C@@H]1O [Example 10, ((R)-1-((((2S,3S,4R,5R)-5-(6-chloro-4-(cyclopentylamino)-1H-pyrazolo[3,4-d]pyrimidin-1-yl)-3,4-dihydroxytetrahydrofuran-2-yl)methyl)sulfonyl)-2-phenylethyl)phosphonic acid]"
2,≤ 100,"COCC(C)(OC[C@H]1O[C@@H](n2cnc3c(NC4CCCC4)nc(Cl)nc32)[C@H](O)[C@@H]1O)P(=O)(O)O (stereo partly drawn) [Example 158, (2-(((2R,3S,4R,5R)-5-(2-chloro-6-(cyclopentylamino)-9H-purin-9-yl)-3,4-dihydroxytetrahydrofuran-2-yl)methoxy)-1-methoxypropan-2-yl)phosphonic acid]"
3,≤ 100,"O=P(O)(O)C(CO)(CO)OC[C@H]1O[C@@H](n2ncc3c(N[C@@H]4CCc5cc(F)ccc54)nc(Cl)nc32)[C@H](O)[C@@H]1O (racemic) [Example 176, rac-(2-(((2R,3S,4R,5R)-5-(6-chloro-4-(((R)-5-fluoro-2,3-dihydro-1H-inden-1-yl)amino)-1H-pyrazolo[3,4-d]pyrimidin-1-yl)-3,4-dihydroxytetrahydrofuran-2-yl)methoxy)-1,3-dihydroxypropan-2-yl)phosphonic acid]"
4,≤ 100,"O=P(O)(O)C(CO)(Cc1cc(O)no1)OC[C@H]1O[C@@H](n2ncc3c(NC4CCCC4)nc(Cl)nc32)[C@H](O)[C@@H]1O (mixture of isomers) [Example 195, rac-(2-(((2R,3S,4R,5R)-5-(6-chloro-4-(cyclopentylamino)-1H-pyrazolo[3,4-d]pyrimidin-1-yl)-3,4-dihydroxytetrahydrofuran-2-yl)methoxy)-1-hydroxy-3-(3-hydroxyisoxazol-5-yl)propan-2-yl)phosphonic acid]"
5,≤ 100,"C[C@@H](Nc1nc(Cl)nc2c1cnn2[C@@H]1O[C@H](COC(CO)(CO)P(=O)(O)O)[C@@H](O)[C@H]1O)c1ccc(F)cc1 (racemic) [Example 222, rac-(2-(((2R,3S,4R,5R)-5-(6-chloro-4-(((R)-1-(4-fluorophenyl)ethyl)amino)-1H-pyrazolo[3,4-d]pyrimidin-1-yl)-3,4-dihydroxytetrahydrofuran-2-yl)methoxy)-1,3-dihydroxypropan-2-yl)phosphonic acid]"
6,≤ 100,"O=P(O)(O)C(CO)(CCO)OC[C@H]1O[C@@H](n2ncc3c(NC4CCCC4)nc(Cl)nc32)[C@H](O)[C@@H]1O (stereo partly drawn) [Example 36, (2-(((2R,3S,4R,5R)-5-(6-chloro-4-(cyclopentylamino)-1H-pyrazolo[3,4-d]pyrimidin-1-yl)-3,4-dihydroxytetrahydrofuran-2-yl)methoxy)-1,4-dihydroxybutan-2-yl)phosphonic acid]"
7,≤ 100,"O=P(O)(O)[C@H](CO)OC[C@H]1O[C@@H](n2nnc3c(NC4CCCC4)cc(Cl)nc32)[C@H](O)[C@@H]1O [Example 144, ((R)-1-(((2R,3S,4R,5R)-5-(5-chloro-7-(cyclopentylamino)-3H-[1,2,3]triazolo[4,5-b]pyridin-3-yl)-3,4-dihydroxytetrahydrofuran-2-yl)methoxy)-2-hydroxyethyl)phosphonic acid]"
8,> 1000,"CN(C)CC(C)(OC[C@H]1O[C@@H](n2ncc3c(NC4CCCC4)nc(Cl)nc32)[C@H](O)[C@@H]1O)P(=O)(O)O (stereo partly drawn) [Example 81, (2-(((2R,3S,4R,5R)-5-(6-chloro-4-(cyclopentylamino)-1H-pyrazolo[3,4-d]pyrimidin-1-yl)-3,4-dihydroxytetrahydrofuran-2-yl)methoxy)-1-(dimethylamino)propan-2-yl)phosphonic acid]"
9,≤ 100,"CCS(=O)(=O)C[C@](C)(OC[C@H]1O[C@@H](n2ncc3c(NC4CCCC4)nc(Cl)nc32)[C@H](O)[C@@H]1O)P(=O)(O)O [Example 137, ((R)-2-(((2R,3S,4R,5R)-5-(6-chloro-4-(cyclopentylamino)-1H-pyrazolo[3,4-d]pyrimidin-1-yl)-3,4-dihydroxytetrahydrofuran-2-yl)methoxy)-1-(ethylsulfonyl)propan-2-yl)phosphonic acid]"
10,≤ 100,"O=C(O)c1ccccc1COCC(CO)(OC[C@H]1O[C@@H](n2ncc3c(NC4CCCC4)nc(Cl)nc32)[C@H](O)[C@@H]1O)P(=O)(O)O (mixture of isomers) [Example 227, rac-2-((2-(((2R,3S,4R,5R)-5-(6-chloro-4-(cyclopentylamino)-1H-pyrazolo[3,4-d]pyrimidin-1-yl)-3,4-dihydroxytetrahydrofuran-2-yl)methoxy)-3-hydroxy-2-phosphonopropoxy)methyl)benzoic acid]"
11,≤ 100,"COCC(COC)(OC[C@H]1O[C@@H](n2ncc3c(NC4CCC4)nc(Cl)nc32)[C@H](O)[C@@H]1O)P(=O)(O)O (racemic) [Example 174, rac-(2-(((2R,3S,4R,5R)-5-(6-chloro-4-(cyclobutylamino)-1H-pyrazolo[3,4-d]pyrimidin-1-yl)-3,4-dihydroxytetrahydrofuran-2-yl)methoxy)-1,3-dimethoxypropan-2-yl)phosphonic acid]"
12,≤ 100,"COCC(COC)(OC[C@H]1O[C@@H](n2ncc3c(NC4CCCC4)nc(Cl)nc32)[C@H](O)[C@@H]1O)P(=O)(O)O [Example 87, [1-[[(2R,3S,4R,5R)-5-[6-Chloro-4-(cyclopentylamino)pyrazolo[3,4-d]pyrimidin-1-yl]-3,4-dihydroxy-tetrahydrofuran-2-yl]methoxy]-2-methoxy-1-(methoxymethyl)ethyl]phosphonic acid]"
13,≤ 100,"CC(CO)(OC[C@H]1O[C@@H](n2ncc3c(N[C@@H]4CCC45CCC5)nc(Cl)nc32)[C@H](O)[C@@H]1O)P(=O)(O)O (stereo partly drawn) [Example 135, (2-(((2R,3S,4R,5R)-5-(6-chloro-4-(((R)-spiro[3.3]heptan-1-yl)amino)-1H-pyrazolo[3,4-d]pyrimidin-1-yl)-3,4-dihydroxytetrahydrofuran-2-yl)methoxy)-1-hydroxypropan-2-yl)phosphonic acid]"
14,≤ 100,"O=c1[nH]c(CC(CO)(OC[C@H]2O[C@@H](n3ncc4c(NC5CCCC5)nc(Cl)nc43)[C@H](O)[C@@H]2O)P(=O)(O)O)no1 (mixture of isomers) [Example 206, rac-(2-(((2R,3S,4R,5R)-5-(6-chloro-4-(cyclopentylamino)-1H-pyrazolo[3,4-d]pyrimidin-1-yl)-3,4-dihydroxytetrahydrofuran-2-yl)methoxy)-1-hydroxy-3-(5-oxo-4,5-dihydro-1,2,4-oxadiazol-3-yl)propan-2-yl)phosphonic acid]"
15,≤ 100,"COC[C@@](Cc1nn[nH]n1)(OC[C@H]1O[C@@H](n2ncc3c(NC4CCCC4)nc(Cl)nc32)[C@H](O)[C@@H]1O)P(=O)(O)O (racemic) [Example 212, rac-((R)-2-(((2S,3R,4S,5S)-5-(6-chloro-4-(cyclopentylamino)-1H-pyrazolo[3,4-d]pyrimidin-1-yl)-3,4-dihydroxytetrahydrofuran-2-yl)methoxy)-1-methoxy-3-(2H-tetrazol-5-yl)propan-2-yl)phosphonic acid]"
16,≤ 100,"CC(O)C(OC[C@H]1O[C@@H](n2ncc3c(NC4CCCC4)nc(Cl)nc32)[C@H](O)[C@@H]1O)P(=O)(O)O (stereo partly drawn) [Example 42, (1-(((2R,3S,4R,5R)-5-(6-chloro-4-(cyclopentylamino)-1H-pyrazolo[3,4-d]pyrimidin-1-yl)-3,4-dihydroxytetrahydrofuran-2-yl)methoxy)-2-hydroxypropyl)phosphonic acid]"
17,≤ 100,"O=P(O)(O)C(CO)(CC1COC1)OC[C@H]1O[C@@H](n2ncc3c(NC4CCCC4)nc(Cl)nc32)[C@H](O)[C@@H]1O (mixture of isomers) [Example 167, rac-(2-(((2R,3S,4R,5R)-5-(6-chloro-4-(cyclopentylamino)-1H-pyrazolo[3,4-d]pyrimidin-1-yl)-3,4-dihydroxytetrahydrofuran-2-yl)methoxy)-1-hydroxy-3-(oxetan-3-yl)propan-2-yl)phosphonic acid]"
18,≤ 100,"CC(CO)(OC[C@H]1O[C@@H](n2ncc3c(NC4CCCC4)nc(Cl)nc32)[C@H](O)[C@@H]1O)P(=O)(O)O (stereo partly drawn) [Example 15, (2-(((2R,3S,4R,5R)-5-(6-Chloro-4-(cyclopentylamino)-1H-pyrazolo[3,4-d]pyrimidin-1-yl)-3,4-dihydroxytetrahydrofuran-2-yl)methoxy)-1-hydroxypropan-2-yl)phosphonic acid]"
19,≤ 100,"C[C@@](CO)(OC[C@H]1O[C@@H](n2ncc3c(NC4CCCC4)nc(C#CCO)nc32)[C@H](O)[C@@H]1O)P(=O)(O)O (racemic) [Example 205, rac-((R)-2-(((2R,3S,4R,5R)-5-(4-(cyclopentylamino)-6-(3-hydroxyprop-1-yn-1-yl)-1H-pyrazolo[3,4-d]pyrimidin-1-yl)-3,4-dihydroxytetrahydrofuran-2-yl)methoxy)-1-hydroxypropan-2-yl)phosphonic acid]"
20,≤ 100,"CC(C)(O)C#Cc1nc(NC2CCCC2)c2cnn([C@@H]3O[C@H](COC(CO)(CO)P(=O)(O)O)[C@@H](O)[C@H]3O)c2n1 (racemic) [Example 224, rac-(2-(((2R,3S,4R,5R)-5-(4-(cyclopentylamino)-6-(3-hydroxy-3-methylbut-1-yn-1-yl)-1H-pyrazolo[3,4-d]pyrimidin-1-yl)-3,4-dihydroxytetrahydrofuran-2-yl)methoxy)-1,3-dihydroxypropan-2-yl)phosphonic acid]"
21,≤ 100,"C[C@](CO)(OC[C@H]1O[C@@H](n2ncc3c(NC4CC5(CCC5)C4)nc(Cl)nc32)[C@H](O)[C@@H]1O)P(=O)(O)O [Example 123, ((S)-2-(((2R,3S,4R,5R)-5-(6-chloro-4-(spiro[3.3]heptan-2-ylamino)-1H-pyrazolo[3,4-d]pyrimidin-1-yl)-3,4-dihydroxytetrahydrofuran-2-yl)methoxy)-1-hydroxypropan-2-yl)phosphonic acid]"
